Assay results taken from patent US11213509B2, “Compositions and methods for treating traumatic brain injury” (Ischemix, LLC, priority 2017, dated 2022).

Tested on: rat model of focal TBI
Test: Morris water maze, rat model of focal TBI (BCCI)
Format: in vivo
Conditions: for Improvement in escape latency relative to Day 1 / Morris water maze escape latency: 30 mg/kg; for Morris water maze escape latency: vs saline
Description: BCCI TBI to the medial frontal cortex (MFC) was induced by a cortical contusion device (Custom Design & Fabrication, Inc [CDF], Richmond, Va.). This device creates a reliable contusion injury to the exposed area of the brain with a brass-tipped impounder. (Hoffman et al., 1994). Rats were anesthetized with isoflurane (5%) (Novaplus™), and 02 (300 cm^3/min), and mounted in a stereotaxic frame. Under aseptic conditions, a sagittal incision was made in the scalp and the fascia retracted to expose the cranium. Then, a 6-mm diameter trephine drill was used to open the skull immediately anterior to the bregma. TBI of the MFC was made with a 5-mm-diameter rounded brass impactor attached to a computer-controlled piston propelled electronically with following parameters: velocity=2.5 m/s; depth=3 mm; duration=100 ms). After BCCI, any cortical surface hemorrhaging was controlled and the fascia and scalp sutured. The animals were allowed to recover in a warmed recovery chamber and appropriate post-operative care was taken. Treatment was delivered 30 minutes after injury and at approximately 24 hrs after injury. Two weeks after injury, rats were tested in the Morris water maze (MWM). The MWM is a well-characterized test of spatial learning and memory in rodents. The objective of the MWM is to teach rats that there is an escape platform located somewhere in a large, water filled pool. The rats are naturally motivated to escape the pool. The rats use extra-maze visual cues to locate the position of a submerged platform over a series of trials. The MWM test was conducted beginning at day 14 after traumatic brain injury. Rats were acclimated to the test room at least 1 hour prior to testing. The MWM consists of a circular pool (160 cm diameter×50 cm height) containing water that was made opaque with non-toxic black paint in order to hide the escape platform (see FIG. 4A). The water temperature was kept at 25±1° C. The water surface was 15 cm from the rim of the pool, and the inner wall was always carefully wiped to eliminate any local cues. The pool was located in a large room with a number of extra-maze visual cues, including highly visible geometric images (squares, triangles, circles, etc.) hung on the wall, diffuse lighting, and curtains to hide the experimenter and the awaiting rats. Behavior was tracked by a video camera hanging above the pool. Video tracking software (ANY-maze) recorded and analyzed the behavior of the animal in the pool. After training, the rats were gently dried with clean paper towels and placed in a warmed holding cage for the rats to dry before being returned to their home cage. Training: During training, the rat was placed into the water facing the wall of the pool and allowed to search for the platform. If the rat found the platform within 60 seconds, the trial was stopped, and the rat was allowed to stay on the platform for 30 seconds before being moved. If the platform was not found within 60 seconds, rats were placed on the platform for 30 sec in order to allow them time to learn the position of the platform in relation of the room's visual cues. Rats were given 4 trials a day for 4 days (days 14 to 17), with a 30 second interval between trials. The starting point was randomly rotated for every rat in each trial. Probe Trial: On the fifth day (day 18 after surgery), the rats received a probe trial. The probe test consisted of placing the animal in the pool for 60 seconds without the platform and monitoring the time spent in the four quadrants of the pool (see FIG. 4B). An animal that has learned the position of the platform will spend more time searching that target quadrant of the pool. During training, a submerged hidden target platform is placed in the pool and this region is defined as the target quadrant (see FIG. 4A). During the probe trial, the platform is removed and the duration of swimming in the different quadrants is tracked by the video camera and computer. […]

[1] = day 18 following surgery, 30 mg/kg vs saline

CC(NC(=O)C(CCC(=O)O)NC(=O)CCCCC1CCSS1)C(=O)O [CMX-2043, N—(R)-lipoyl-glutamylalanine]
Improvement in escape latency relative to Day 1 (Day 2 of training): 4.9 s | Improvement in escape latency relative to Day 1 (Day 3 of training): 8.7 s | Improvement in escape latency relative to Day 1 (Day 4 of training, significantly better than saline): 24.2 s | Morris water maze escape latency (day 1 of training): longer latency times than saline treated animals | Probe trial number of entries into the platform zone [1]: did not reveal a significant difference | Probe trial time spent in the target quadrant [1]: did not show an overall difference | Morris water maze escape latency (final training day): significantly faster escape latency | Morris water maze escape latency (training days 2 and 3): no differences between groups | Morris water maze swim distance (training, 30 mg/kg vs saline): no difference | Morris water maze swim speed (training, 30 mg/kg vs saline): no difference
